In patent US20080242649A1, “New Combination 665” (priority 2007, published 2008):
Where a name gives a salt, the structure may show the parent alone.

Experiments:
[1] = molecular target: T1, recombinant human α1D receptor (Homo sapiens, UniProt P25100); assay: Adrenergic α1D [3H]-prazosin binding, HEK293 membranes; conditions: inhibition of [3H]-prazosin binding; read-out: α1 bind pIC50 (converted)
T1 construct: expressed in transfected cells; host or cells: HEK293 cells (membranes)
T1 sequence (P25100 1-572): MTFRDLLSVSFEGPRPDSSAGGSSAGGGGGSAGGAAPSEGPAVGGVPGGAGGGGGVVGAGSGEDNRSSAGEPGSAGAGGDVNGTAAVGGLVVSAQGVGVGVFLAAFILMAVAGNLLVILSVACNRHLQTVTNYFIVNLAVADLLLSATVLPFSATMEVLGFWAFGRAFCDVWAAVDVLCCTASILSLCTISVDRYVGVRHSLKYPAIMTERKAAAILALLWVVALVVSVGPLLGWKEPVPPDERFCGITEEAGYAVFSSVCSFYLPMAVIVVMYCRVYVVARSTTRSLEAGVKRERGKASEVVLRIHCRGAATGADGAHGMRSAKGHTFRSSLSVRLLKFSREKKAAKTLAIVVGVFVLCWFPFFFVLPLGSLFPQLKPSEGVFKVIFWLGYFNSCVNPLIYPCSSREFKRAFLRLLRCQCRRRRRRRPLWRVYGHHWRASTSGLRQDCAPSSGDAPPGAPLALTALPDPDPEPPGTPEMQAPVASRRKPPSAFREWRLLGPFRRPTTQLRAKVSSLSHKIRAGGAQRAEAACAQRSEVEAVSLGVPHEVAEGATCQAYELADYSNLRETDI
Method: Membranes were prepared from human embryonic kidney 293 (HEK293) cells expressing recombinant human α1D receptor. These were diluted in Assay Buffer (50 mM HEPES, 1 mM EDTA, 0.1% gelatin, pH 7.4) to provide a final concentration of membranes that gave a clear window between maximum and minimum specific binding.
(§1) Assays were performed in U-bottomed 96-well polypropylene plates. 10 μL [^3H]-prazosin (0.3 nM final concentration) and 10 μL of Compound A (10× final concentration) were added to each test well. For each assay plate 8 replicates were obtained for [^3H]-prazosin binding in the presence of 10 μL vehicle (10% (v/v) DMSO in Assay Buffer; defining maximum binding) or 10 μL BMY7378 (10 μM final concentration; defining non-specific binding (NSB)). Membranes were then added to achieve a final volume of 100 μL. […] Five washes with 250 μL wash buffer (50 mM HEPES, 1 mM EDTA, pH 7.4) were performed at 4° C. to remove unbound radioactivity. […] The plates were sealed (TopSeal A) and filter-bound radioactivity was measured with a scintillation counter (TopCount, Packard BioScience) using a 3-minute counting protocol.
(§2) Total specific binding (B0) was determined by subtracting the mean NSB from the mean maximum binding. […]

[2] = molecular target: T2, recombinant human adrenergic beta 1 receptors (Homo sapiens, UniProt P08588); assay: Adrenergic β1 [125I]-Iodocyanopindolol binding; conditions: inhibition of [125I]-Iodocyanopindolol binding; read-out: β1 bind pIC50 (converted)
T2 construct: purchased Euroscreen
Method: (§3) Membranes containing recombinant human adrenergic beta 1 receptors were obtained from Euroscreen. These were diluted in Assay Buffer (50 mM HEPES, 1 mM EDTA, 120 mM NaCl, 0.1% gelatin, pH 7.4) to provide a final concentration of membranes that gave a clear window between maximum and minimum specific binding.
as §1, with “PL [1251]-Iodocyanopindolol (0.036” for “μL [^3H]-prazosin (0.3”, “[^125]-Iodocyanopindolol” for “[^3H]-prazosin”, “Propranolol” for “BMY7378”, “EDTA, 120 mM NaCl,” for “EDTA,”
as §2

[3] = molecular target: T3, recombinant human Dopamine Subtype D2s receptors (Homo sapiens, UniProt P14416); assay: Dopamine D2 [3H]-spiperone binding; conditions: inhibition of [3H]-spiperone binding; read-out: D2 bind pIC50 (converted)
T3 construct: purchased Perkin Elmer
Method: as §3, with “Dopamine Subtype D2s” for “adrenergic beta 1”, “Perkin Elmer.” for “Euroscreen.”
Assays were performed in U-bottomed 96-well polypropylene plates. 30 PL [^3H]-spiperone (0.16 nM final concentration) and 30 μL of Compound A (10× final concentration) were added to each test well. For each assay plate 8 replicates were obtained for [^3H]-spiperone binding in the presence of 30 PL vehicle (10% (v/v) DMSO in Assay Buffer; defining maximum binding) or 30 μL Haloperidol (10 PM final concentration; defining non-specific binding (NSB)). Membranes were then added to achieve a final volume of 300 μL. […] Five washes with 250 μL wash buffer (50 mM HEPES, 1 mM EDTA, 120 mM NaCl, pH 7.4) were performed at 4° C. to remove unbound radioactivity. […] The plates were sealed (TopSeal A) and filter-bound radioactivity was measured with a scintillation counter (TopCount, Packard BioScience) using a 3-minute counting protocol.
as §2

T2 sequence (P08588 whole entry): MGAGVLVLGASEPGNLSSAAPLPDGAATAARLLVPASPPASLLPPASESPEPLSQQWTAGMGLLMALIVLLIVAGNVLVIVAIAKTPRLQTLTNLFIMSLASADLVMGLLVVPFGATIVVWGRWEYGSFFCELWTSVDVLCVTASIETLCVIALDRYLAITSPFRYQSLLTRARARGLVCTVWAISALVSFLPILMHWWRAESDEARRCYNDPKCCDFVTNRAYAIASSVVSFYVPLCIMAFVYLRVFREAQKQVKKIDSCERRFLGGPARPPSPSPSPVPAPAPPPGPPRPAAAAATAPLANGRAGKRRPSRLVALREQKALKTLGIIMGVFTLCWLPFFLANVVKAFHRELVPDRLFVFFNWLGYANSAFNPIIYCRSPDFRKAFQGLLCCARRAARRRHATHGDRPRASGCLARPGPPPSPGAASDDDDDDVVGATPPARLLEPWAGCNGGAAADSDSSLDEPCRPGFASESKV
T3 sequence (P14416 1-414 isoform P14416-2): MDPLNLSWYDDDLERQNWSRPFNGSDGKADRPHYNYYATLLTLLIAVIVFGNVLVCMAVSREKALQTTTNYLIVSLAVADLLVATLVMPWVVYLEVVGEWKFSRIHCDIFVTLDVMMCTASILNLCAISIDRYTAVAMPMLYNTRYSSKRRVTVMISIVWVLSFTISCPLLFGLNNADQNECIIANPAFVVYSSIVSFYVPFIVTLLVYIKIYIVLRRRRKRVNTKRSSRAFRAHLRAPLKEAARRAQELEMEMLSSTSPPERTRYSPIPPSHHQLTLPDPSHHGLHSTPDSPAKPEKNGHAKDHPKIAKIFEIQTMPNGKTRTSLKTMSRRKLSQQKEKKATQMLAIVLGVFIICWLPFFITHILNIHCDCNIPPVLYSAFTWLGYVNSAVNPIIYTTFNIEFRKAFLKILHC

## CCN(CC)CCN(CCNCCc1ccc(O)c2[nH]c(=O)sc12)C(=O)CCOCCc1cccc2ccccc12 [Compound A, N-[2-(Diethylamino)ethyl]-N-(2-{[2-(4-hydroxy-2-oxo-2,3-dihydro-1,3-benzothiazol-7-yl)ethyl]amino}ethyl)-3-[2-(1-naphthyl)ethoxy]propanamide dihydrobromide]
[1]
  IC50: 251 nM
[2]
  IC50: > 10000 nM
[3]
  IC50: 794 nM
